{
  "source": "paper PMC5241826",
  "about": "“An extended N-H bond, driven by a conserved second-order interaction, orients the flavin N5 orbital in cholesterol oxidase” (Scientific Reports, 2017)",
  "molecular_target": "T1, cholesterol oxidase (COx; H/D-COx) (Streptomyces sp. SA-COO, UniProt P12676)",
  "T1 construct": "gene choA; secreted mature form; H/D-exchanged crystal",
  "T1 sequence (P12676 43-546)": "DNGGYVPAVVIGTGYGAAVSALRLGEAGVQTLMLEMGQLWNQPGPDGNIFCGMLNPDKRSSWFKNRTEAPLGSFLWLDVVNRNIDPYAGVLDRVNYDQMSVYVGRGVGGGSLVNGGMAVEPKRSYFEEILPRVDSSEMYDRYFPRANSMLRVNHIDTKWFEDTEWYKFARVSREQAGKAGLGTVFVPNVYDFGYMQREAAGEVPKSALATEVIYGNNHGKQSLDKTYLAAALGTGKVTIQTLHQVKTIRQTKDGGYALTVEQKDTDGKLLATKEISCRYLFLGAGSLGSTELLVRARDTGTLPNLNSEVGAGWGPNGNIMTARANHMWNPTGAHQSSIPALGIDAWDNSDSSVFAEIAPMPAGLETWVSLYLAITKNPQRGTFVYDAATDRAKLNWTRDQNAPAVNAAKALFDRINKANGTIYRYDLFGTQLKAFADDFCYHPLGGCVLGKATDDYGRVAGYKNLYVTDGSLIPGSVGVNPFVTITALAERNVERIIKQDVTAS",
  "experiment": "joint X-ray/neutron crystal structure, […] A neutron, […] A X-ray",
  "format": "binding",
  "conditions": "H/D-exchanged crystal (D2O soak), room-temperature neutron data, crystallised at pH 5.2; Gly120 N-H to FAD N5 hydrogen bond",
  "data": [
    {"smiles": "Cc1cc2nc3c(=O)[nH]c(=O)nc-3n(C[C@H](O)[C@H](O)[C@H](O)COP(=O)(O)OP(=O)(O)OC[C@H]3O[C@@H](n4cnc5c(N)ncnc54)[C@H](O)[C@@H]3O)c2cc1C", "note": "[FAD]", "values": [
      {"measurement": "joint X-ray/neutron crystal structure, 2.2 A neutron, 1.5 A X-ray", "result": "one involved in a conserved hydrogen bond between Gly120-NH and FAD-N5"}
    ]}
  ]
}
